Assay results as given in article PMC10893172, “Identification of Triazolopyrimidinyl Scaffold SARS-CoV-2 Papain-Like Protease (PL^pro) Inhibitor” (Pharmaceutics, 2024).
Where two headings read alike, the source gives them in different places.

Columns and labels:
[1] = tested on: SARS-CoV and SARS-CoV-2 PL^pro protein; details: known PL^pro inhibitors, literature values; cited from earlier work
[2] = biological target: SARS-CoV-2 papain-like protease (PL^pro) (Severe acute respiratory syndrome coronavirus 2, UniProt P0DTD1); assay: biochemical
[3] = 0.2 µM PL^pro, 30 µM substrate, 30 min preincubation at 25 °C, endpoint fluorescence after 2 h, triplicate, read-out: IC50

| Compound | IC50 [1] | IC50 [2, 3] | other results |
| --- | --- | --- | --- |
| 5-Amino-2-methyl-N-[2-(1-naphthyl)ethyl]-benzamide [GRL0617] | 1.61 ± 0.09 µM |  |  |
| C[C@H](c1cccc2ccccc12)N1CCC(C(=O)NCc2cccc(F)c2)CC1 [Hit 3K] | 0.15 ± 0.01 µM |  |  |
| Cc1cc2nn(CC(=O)NCc3ccco3)c(=O)n2c(Nc2ccc(C)c(C)c2)n1 [Hit 372] |  | 82 ± 34 µM |  |
| O=C(N/N=C/c1cccc(OC2CSC2)c1)c1ccccc1O [Hit 826] |  |  | IC50 [2]: 328 ± 33 µM |
| Cn1nccc1-c1cc(C(=O)NCc2ccc(S(C)(=O)=O)cn2)c(=O)n(-c2cccc(C(F)(F)F)c2)c1 [Hit 903] |  | 881 ± 41 µM |  |
| Cc1ccc(C)c(NC(=O)Cn2nc3n(C)c(=O)c4c(c(-c5ccccc5)cn4C)n3c2=O)c1 [Hit 922] |  | 439 ± 43 µM |  |
| Nc1nc2[nH]cnc2c(=S)[nH]1 [Tioguanin (6-TG)] | 72 ± 12 µM |  |  |
